Legend:
[1] = MTT cytotoxicity on SH-SY5Y cells; assay type: cell-based, human; settings: human, SH-SY5Y neuroblastoma cells, MTT test, 24 h incubation; read-out: IC50, in vitro cytotoxicity on SH-SY5Y cells
Experimental: (§1) Human neuroblastoma cell line SH-SY5Y was obtained from the European Collection of Cell Cultures (ECACC, Salisbury, UK). The cells were maintained in 75 cm^2 flasks at 37 °C in a humidified atmosphere with 5% CO2 and cultured in RPMI 1640 medium, supplemented with 10% fetal bovine serum and 2 mM L-glutamine.
(§2) MTT (Sigma-Aldrich Chemie GmbH, Schnelldorf, Germany) assay is based on interaction between tetrazolium dye 3-(4,5-dimethylthiazol-2-yl)-2,5-diphenyltetrazolium bromide and succinic dehydrogenase in the living cells’ mitochondria. In this reaction, the formed purple formazan crystals indicate the presence of viable cells. SH-SY5Y cells were seeded in 96-well microplates at a density 2.5 × 10^4 cells/well and allowed to attach to the well surface at 37 °C in a humidified atmosphere with 5% CO2 (24 h). Different concentrations of compounds ([…]) were added to cells and incubated for 24 h. For each concentration, a set of at least 8 wells were used. After the treatment, the solution in each well was substituted with MTT (3-(4,5-dimethylthiazol-2-yl)-2,5-diphenyltetrazolium bromide) solution (0.5 mg/mL in culture medium). The microplates were further incubated for 3 h at 37 °C and the obtained formazan crystals were dissolved by 100 µL/well of DMSO. The absorbance was measured in a multiplate reader Synergy 2 (BioTek Instruments, Inc, Highland Park, Winooski, VT, USA) at 570 nm (690 nm for background absorbance).
(§3) An important step in the development of new pharmacologically active compounds is the establishment of their safety profile. An in vitro toxicity evaluation was carried out on the neuroblastoma cell line SH-SY5Y, which is a well-established model in neuroscience. The neuroblastoma SH-SY5Y are human derived cells with relatively homogeneous neuroblast-like structure. The cells express a dopamine-β-hydroxylase and tyrosine hydroxylase enzyme activity, specific types of human proteins and protein isoforms. The possible neurotoxic effects of the potential drug candidates were measured by cell viability assay (MTT-test). The IC50 values were used as a robust parameter for comparison. The test compounds were dissolved in DMSO and serially diluted in cell culture medium to achieve final concentrations ranging from 1 to 500 µM; the culture medium containing DMSO in the corresponding concentration was used as untreated controls. A concentration dependent effect on cell viability was observed after 24 h incubation.

SH-SY5Y cells = experiment: MTT cytotoxicity on SH-SY5Y cells; assay type: cell-based, human; settings: MTT test, 24 h incubation; read-out: IC50, in vitro cytotoxicity on SH-SY5Y cells
Experimental: as §1, §2, §3

rat brain synaptosomes = experiment: Synaptosomal viability (MTT), toxicity evaluation; assay type: cell-based; settings: concentrations < 250 µM (1 to 250 µM tested)
Experimental: Synaptosomes were prepared from brains of adult male Wistar rats. The brains were homogenized in 10 volume of cold buffer 1, containing 5 mM HEPES and 0.32 M sucrose (pH = 7.4). The brain homogenate was centrifuged twice at 1000× g for 5 min at 4 °C. The supernatant was collected and centrifuged 3 times at 10,000× g for 20 min at 4 °C. The pellet was re-suspended in ice-cold buffer 1. The synaptosomes were isolated by using Percoll reagent to prepare the gradient. Synaptosomes were re-suspended and incubated in buffer 2, containing 290 mM NaCl, 0.95 mM MgCl2 × 6H2O, 10 mM KCl, 2.4 mM CaCl2 × H2O, 2.1 mM NaH2PO4, 44 mM HEPES, and 13 mM D-glucose. Incubations were performed in a 5% CO2 + 95% O2 atmosphere. The content of synaptosomal protein was determined according to the method of Lowry et al. using bovine serum albumin as a standard.
Synaptosomal viability was measured by (3-(4,5)-dimethylthiazol-2-yl)-2,5-diphenyl tetrazolium bromide)-test, described by Mungarro-Menchaca et al. The synaptosomes were incubated with the compounds and then treated with (3-(4,5)-dimethylthiazol-2-yl)-2,5-diphenyl tetrazolium bromide) solution (0.5 mg/mL) for 1 h at 37 °C. After incubation they were centrifuged at 15,000× g for 1 min. The formed formazan crystals were dissolved in DMSO (Dimethyl sulfoxide). The extinction was measured spectrophotometrically at λ = 580 nm.
The low toxicity and substantial neuroprotective properties shown by some of the potential drug candidates in human neuroblastoma SH-SY5Y cells directed the experimental work to be elaborated on a different cellular in vitro model using freshly isolated rat brain synaptosomes for the evaluation of the protective effects and toxicity of selected promising compounds [56]. The rat brain synaptosomes represent a terminal part of the axons and contain synaptic vesicles, mitochondria, lysosomes, parts of the cell membrane, neurotransmitters, which diffuse across the synaptic cleft. Besides the presynaptic membrane, a part of postsynaptic membrane with the postsynaptic density is often attached to the nerve ending. In their experiments, Student and Edwards examined the subcellular localization of the A and B forms of MAO in rat brain. […] The authors conclude from the data that MAO-B activity is, indeed, associated with synaptosomes and may be non-uniformly located among different populations of synaptic endings. The functional-metabolic status of the synaptosomes was evaluated by measuring the synaptosomal viability (MTT assay) and the levels of reduced gluthathione (GSH) (Figure 2). […] At the highest used concentration (250 µM) a relative decrease in the synaptosomal viability and the levels of reduced glutathione was observed.

[2] = Superoxide scavenging, xanthine/xanthine oxidase NBT assay; assay type: biochemical; settings: for change in sample absorbance vs. controls (in words): whole tested concentration range
Experimental: Superoxide radicals scavenging activity (enzymatic assay): The assay comprises the preparation of 1 mL PBS samples containing the following substances: 1 mmol/l xanthine; 20 µL xanthine oxidase (100 IU/L); 0.04 mmol/L NBT; either the tested hydrazone or buffer for the controls. The samples were incubated at 37 °C and the absorbance was measured at 560 nm.
The results from both assays have been presented as a percentage of the control sample.
The potency of the compounds selected as the most promising from the cell model systems and hMAOB inhibitory studies was estimated against enzymatically (xanthine/XO system) and non-enzymatically (KO2/NBT) produced superoxide radicals (Figure 7). In the xanthine-xanthine oxidase system the generation of O2^−^● is a result of an enzymatic reaction. The molecular mechanism of action of the XO enzyme is associated with catalysation of the reaction of oxidation of hypoxanthine and xanthine and generation of uric acid. During the process of reoxidation of the enzyme, the molecular oxygen acts as an electron acceptor and the formation of physiologically important ROS, such as the superoxide radical (O2^−^●) and hydrogen peroxide (H2O2), has been observed. In the potassium superoxide-containing systems, superoxide radical generation is due to the direct addition of the KO2 to the water sample solution. The release of a superoxide anion was estimated via NBT reduction activity, indicating detectable superoxide anion levels. The application of these two alternative model systems will afford the possibility to perform a more accurate interpretation of the obtained results. Since in the enzyme-free model system, the release of the superoxide in the small sample volume is a very fast process, there is a risk of local effects that is avoided in the xanthine-xanthine oxidase system. The use of enzyme reaction provides a relatively slow generation of the superoxide radical and steady concentration.

Row | Structure (SMILES) | melting point | IC50 at 24 h [1] | IC50 (SH-SY5Y cells) | effect on rat brain synaptosomes viability (rat brain synaptosomes) | % of the control ratio, NBT reduction ([2]; maximal tested concentration) | change in sample absorbance vs. controls (in words) [2] | decrease of NBT reduction ([2]; xanthine/xanthine oxidase assay)
1 | O=C(CCn1c(=S)n(CCC(=O)NN=Cc2cccc(O)c2O)c2ccccc21)NN=Cc1cccc(O)c1O [3h, 3,3′-(2-Thioxo-1H-benzo[d]imidazole-1,3(2H)-diyl)bis(N′-(2,3-dihydroxybenzylidene)propanehydrazide)] | 246 to 248 °C | > 250 µM | 296 µM | did not significantly reduce | 64% |  | 
2 | O=C(CCn1c(=S)n(CCC(=O)NN=Cc2ccccc2O)c2ccccc21)NN=Cc1ccccc1O [3e, 3,3′-(2-Thioxo-1H-benzo[d]imidazole-1,3(2H)-diyl)bis(N′-(2-hydroxybenzylidene)propanehydrazide)] | 272 to 273 °C | > 200 µM | 235 µM | did not significantly reduce |  | did not induce statistically significant change | 
3 | COc1ccc(C=NNC(=O)CCn2c(=S)n(CCC(=O)NN=Cc3ccc(OC)cc3O)c3ccccc32)c(O)c1 [3m, 3,3′-(2-Thioxo-1H-benzo[d]imidazole-1,3(2H)-diyl)bis(N′-(2-hydroxy-4-methoxybenzylidene)propanehydrazide)] | 247 to 249 °C | > 200 µM | 211 µM | did not significantly reduce |  | did not induce statistically significant change | 
4 | O=C(CCn1c(=S)n(CCC(=O)NN=Cc2ccc(O)cc2O)c2ccccc21)NN=Cc1ccc(O)cc1O [3i, 3,3′-(2-Thioxo-1H-benzo[d]imidazole-1,3(2H)-diyl)bis(N′-(2,4-dihydroxybenzylidene)propanehydrazide)] | 254 to 256 °C | > 250 µM | 301 µM | did not significantly reduce |  |  | 15%
